Measured values published in patent US8758816B2, “Compositions comprising azelastine and methods of use thereof” (priority 2004, dated 2014).

Tested on: patients with seasonal allergic rhinitis (SAR)
Test: MP 428 study: individual symptom severity scores (runny nose, itchy nose, sneezing, congestion; 0-3 scale)
Type: in vivo, human
Conditions: Intent-to-Treat Population
Description: A two-week, randomized, double-blind study, which evaluated the effects of the co-administration of ASTELIN® (azelastine hydrochloride (HCl)) and FLONASE® (fluticasone propionate) compared to either product alone in patients with seasonal allergic rhinitis (SAR) was conducted during the 2006 Texas mountain cedar season. After a 5-day placebo lead-in period, 151 patients with moderate-to-severe allergic rhinitis symptoms were randomized to either: (1) (49 total patients) ASTELIN® (azelastine hydrochloride (HCl)) plus placebo saline nasal spray 2 sprays per nostril, 15 minutes apart, twice daily (AM & PM); (2) (50 total patients) FLONASE® (fluticasone propionate) plus placebo saline nasal spray, 2 sprays per nostril, 15 minutes apart, once daily (AM) and two sessions of placebo saline nasal spray, 2 sprays per nostril, 15 minutes apart (PM); or (3) (52 total patients) the co-administration of ASTELIN® (azelastine hydrochloride (HCl)) 2 sprays per nostril plus FLONASE® (fluticasone propionate) 2 sprays per nostril (AM), 15 minutes apart, and ASTELIN® (azelastine hydrochloride (HCl)) 2 sprays per nostril plus placebo saline nasal spray, 15 minutes apart, (PM) for a 2-week double-blind treatment period.
The primary efficacy variable was the change from baseline in the Total Nasal Symptom Score (TNSS), which comprised sneezing, itchy nose, runny nose, and nasal congestion (individual symptoms scores were assigned a value between 0 and 3, where 0=no symptoms and 3=severe symptoms). This study was not statistically designed to assess the differences between ASTELIN® and FLONASE®.
The results of the clinical trial are summarized and presented in Appendix A hereinbelow and in FIGS. 1-6. […] FIGS. 2-5 show the mean improvement in severity score (0-3 scale) from baseline for the symptoms of runny nose, itchy nose, sneezing and congestion, respectively.

## CCC(=O)O[C@]1(C(=O)SCF)[C@H](C)C[C@H]2[C@@H]3C[C@H](F)C4=CC(=O)C=C[C@]4(C)[C@@]3(F)[C@@H](O)C[C@@]21C [Fluticasone, fluticasone propionate]
Day 12
  Percent Change from Baseline in AM and PM Combined Nasal Symptom Score: Congestion, LS Mean: −26.02%
  Percent Change from Baseline in AM and PM Combined Nasal Symptom Score: Congestion, Mean: −27.05%
  Percent Change from Baseline in AM and PM Combined Nasal Symptom Score: Congestion, Median: −27.93%
  Percent Change from Baseline in AM and PM Combined Nasal Symptom Score: Itchy Nose, LS Mean: −29.96%
  Percent Change from Baseline in AM and PM Combined Nasal Symptom Score: Itchy Nose, Mean: −29.58%
  Percent Change from Baseline in AM and PM Combined Nasal Symptom Score: Itchy Nose, Median: −30.22%
  Percent Change from Baseline in AM and PM Combined Nasal Symptom Score: Runny Nose, LS Mean: −31.33%
  Percent Change from Baseline in AM and PM Combined Nasal Symptom Score: Runny Nose, Mean: −31.86%
  Percent Change from Baseline in AM and PM Combined Nasal Symptom Score: Runny Nose, Median: −25.62%
  Percent Change from Baseline in AM and PM Combined Nasal Symptom Score: Sneezing, LS Mean: −33.86%
  Percent Change from Baseline in AM and PM Combined Nasal Symptom Score: Sneezing, Mean: −31.18%
  Percent Change from Baseline in AM and PM Combined Nasal Symptom Score: Sneezing, Median: −35.69%
Day 13
  Change from Baseline in AM and PM Combined Nasal Symptom Score: Congestion, LS Mean: −1.55
  Change from Baseline in AM and PM Combined Nasal Symptom Score: Congestion, Mean: −1.59
  Change from Baseline in AM and PM Combined Nasal Symptom Score: Congestion, Median: −1.43
  Change from Baseline in AM and PM Combined Nasal Symptom Score: Itchy Nose, LS Mean: −1.64
  Change from Baseline in AM and PM Combined Nasal Symptom Score: Itchy Nose, Mean: −1.62
  Change from Baseline in AM and PM Combined Nasal Symptom Score: Itchy Nose, Median: −1.42
  Change from Baseline in AM and PM Combined Nasal Symptom Score: Runny Nose, LS Mean: −1.78
  Change from Baseline in AM and PM Combined Nasal Symptom Score: Runny Nose, Mean: −1.78
  Change from Baseline in AM and PM Combined Nasal Symptom Score: Runny Nose, Median: −2.00
  Change from Baseline in AM and PM Combined Nasal Symptom Score: Sneezing, LS Mean: −1.98
  Change from Baseline in AM and PM Combined Nasal Symptom Score: Sneezing, Mean: −1.84
  Change from Baseline in AM and PM Combined Nasal Symptom Score: Sneezing, Median: −1.83
  Percent Change from Baseline in AM and PM Combined Nasal Symptom Score: Congestion, LS Mean: −28.59%
  Percent Change from Baseline in AM and PM Combined Nasal Symptom Score: Congestion, Mean: −28.95%
  Percent Change from Baseline in AM and PM Combined Nasal Symptom Score: Congestion, Median: −26.38%
  Percent Change from Baseline in AM and PM Combined Nasal Symptom Score: Itchy Nose, LS Mean: −31.14%
  Percent Change from Baseline in AM and PM Combined Nasal Symptom Score: Itchy Nose, Mean: −30.81%
  Percent Change from Baseline in AM and PM Combined Nasal Symptom Score: Itchy Nose, Median: −31.23%
  Percent Change from Baseline in AM and PM Combined Nasal Symptom Score: Runny Nose, LS Mean: −30.96%
  Percent Change from Baseline in AM and PM Combined Nasal Symptom Score: Runny Nose, Mean: −30.84%
  Percent Change from Baseline in AM and PM Combined Nasal Symptom Score: Runny Nose, Median: −33.33%
  Percent Change from Baseline in AM and PM Combined Nasal Symptom Score: Sneezing, LS Mean: −42.84%
  Percent Change from Baseline in AM and PM Combined Nasal Symptom Score: Sneezing, Mean: −40.87%
  Percent Change from Baseline in AM and PM Combined Nasal Symptom Score: Sneezing, Median: −35.42%
Day 14
  Change from Baseline in AM and PM Combined Nasal Symptom Score: Congestion, LS Mean: −1.53
  Change from Baseline in AM and PM Combined Nasal Symptom Score: Congestion, Mean: −1.59
  Change from Baseline in AM and PM Combined Nasal Symptom Score: Congestion, Median: −1.30
  Change from Baseline in AM and PM Combined Nasal Symptom Score: Itchy Nose, LS Mean: −1.76
  Change from Baseline in AM and PM Combined Nasal Symptom Score: Itchy Nose, Mean: −1.74
  Change from Baseline in AM and PM Combined Nasal Symptom Score: Itchy Nose, Median: −1.57
  Change from Baseline in AM and PM Combined Nasal Symptom Score: Runny Nose, LS Mean: −1.89
  Change from Baseline in AM and PM Combined Nasal Symptom Score: Runny Nose, Mean: −1.88
  Change from Baseline in AM and PM Combined Nasal Symptom Score: Runny Nose, Median: −2.15
  Change from Baseline in AM and PM Combined Nasal Symptom Score: Sneezing, LS Mean: −1.87
  Change from Baseline in AM and PM Combined Nasal Symptom Score: Sneezing, Mean: −1.70
  Change from Baseline in AM and PM Combined Nasal Symptom Score: Sneezing, Median: −1.83
  Percent Change from Baseline in AM and PM Combined Nasal Symptom Score: Congestion, LS Mean: −28.37%
  Percent Change from Baseline in AM and PM Combined Nasal Symptom Score: Congestion, Mean: −29.09%
  Percent Change from Baseline in AM and PM Combined Nasal Symptom Score: Congestion, Median: −24.53%
  Percent Change from Baseline in AM and PM Combined Nasal Symptom Score: Itchy Nose, LS Mean: −33.39%
  Percent Change from Baseline in AM and PM Combined Nasal Symptom Score: Itchy Nose, Mean: −33.38%
  Percent Change from Baseline in AM and PM Combined Nasal Symptom Score: Itchy Nose, Median: −33.33%
  Percent Change from Baseline in AM and PM Combined Nasal Symptom Score: Runny Nose, LS Mean: −36.10%
  Percent Change from Baseline in AM and PM Combined Nasal Symptom Score: Runny Nose, Mean: −35.65%
  Percent Change from Baseline in AM and PM Combined Nasal Symptom Score: Runny Nose, Median: −41.75%
  Percent Change from Baseline in AM and PM Combined Nasal Symptom Score: Sneezing, LS Mean: −39.31%
  Percent Change from Baseline in AM and PM Combined Nasal Symptom Score: Sneezing, Mean: −36.07%
  Percent Change from Baseline in AM and PM Combined Nasal Symptom Score: Sneezing, Median: −33.94%
Overall (Day 2 to Day 14)
  Change from Baseline in AM and PM Combined Nasal Symptom Score: Congestion, LS Mean: −1.14
  Change from Baseline in AM and PM Combined Nasal Symptom Score: Congestion, Mean: −1.19
  Change from Baseline in AM and PM Combined Nasal Symptom Score: Congestion, Median: −0.99
  Change from Baseline in AM and PM Combined Nasal Symptom Score: Itchy Nose, LS Mean: −1.25
  Change from Baseline in AM and PM Combined Nasal Symptom Score: Itchy Nose, Mean: −1.24
  Change from Baseline in AM and PM Combined Nasal Symptom Score: Itchy Nose, Median: −0.95
  Change from Baseline in AM and PM Combined Nasal Symptom Score: Runny Nose, LS Mean: −1.34
  Change from Baseline in AM and PM Combined Nasal Symptom Score: Runny Nose, Mean: −1.36
  Change from Baseline in AM and PM Combined Nasal Symptom Score: Runny Nose, Median: −1.04
  Change from Baseline in AM and PM Combined Nasal Symptom Score: Sneezing, LS Mean: −1.52
  Change from Baseline in AM and PM Combined Nasal Symptom Score: Sneezing, Mean: −1.44
  Change from Baseline in AM and PM Combined Nasal Symptom Score: Sneezing, Median: −1.34
  Percent Change from Baseline in AM and PM Combined Nasal Symptom Score: Congestion, LS Mean: −21.11%
  Percent Change from Baseline in AM and PM Combined Nasal Symptom Score: Congestion, Mean: −21.68%
  Percent Change from Baseline in AM and PM Combined Nasal Symptom Score: Congestion, Median: −18.72%
  Percent Change from Baseline in AM and PM Combined Nasal Symptom Score: Itchy Nose, LS Mean: −25.54%
  Percent Change from Baseline in AM and PM Combined Nasal Symptom Score: Itchy Nose, Mean: −25.67%
  Percent Change from Baseline in AM and PM Combined Nasal Symptom Score: Itchy Nose, Median: −18.89%
  Percent Change from Baseline in AM and PM Combined Nasal Symptom Score: Runny Nose, LS Mean: −23.02%
  Percent Change from Baseline in AM and PM Combined Nasal Symptom Score: Runny Nose, Mean: −23.19%
  Percent Change from Baseline in AM and PM Combined Nasal Symptom Score: Runny Nose, Median: −21.99%
  Percent Change from Baseline in AM and PM Combined Nasal Symptom Score: Sneezing, LS Mean: −31.80%
  Percent Change from Baseline in AM and PM Combined Nasal Symptom Score: Sneezing, Mean: −31.11%
  Percent Change from Baseline in AM and PM Combined Nasal Symptom Score: Sneezing, Median: −33.13%
